Results reported in patent publication US20090247461A1, “METHODS FOR THERAPEUTIC TREATMENT OF PAIN” (priority 2004, published 2009).

Key:
[1] = tested on: sciatic nerve ligation injury model; assay: Heat test before and after administration of serotonin depletor, opioid antagonist, α- or β-adrenergic receptor blocker; type: in vivo, rat; details: 3 weeks after ligation; for heat test with vs without / before vs after the depletor or blocker, control group: saline control group, 5,7-DHT intradural, naloxone 5 mg/kg, propranolol 10 mg/kg
Method: (§1) A sciatic nerve ligation injury model was prepared by modifying the neuropathic pain model published by Bennett et al. according to the method of Takeba (Pain, Vol. 33, pp. 87-107, 1988; Ehime Igaku (Ehime Medical Journal), Vol. 21, pp. 192-206, 2002). Under anesthesia by inhalation of 3% halothane and nitrous oxide, bilateral sciatic nerves of 8- to 12-week old female Wistar rats (Clea Japan, Inc., Osaka) were exposed and ligated at the central level of the femur along with a 27-gauge injection needle on the both sides by using a 4-0 polyglycolic acid suture at 4 sites at intervals of 1 mm for both sides. Then, the injection needle was removed to prepare a sciatic nerve ligation injury model. The ligation was attained to such a degree that the crural muscles slightly contractable by a stimulus given to the nerve, and care was taken not to cause injury in the axon by the ligation operation itself.
A solution of ginsenoside Rb1 (0.10 or 0.50 μg/μl) in a volume of 120 μl or an equivalent volume of saline was intravenously administered by one-shot to rats 24 hours after the sciatic nerve ligation. Then, ginsenoside Rb1 was intravenously administered continuously by using the continuous injection pump at a dose of 12 μg/day (hereinafter referred to as “S12”) or 60 μg/day (hereinafter referred to as “S60”) and a rate of 0.25 μL/hour for 4 weeks. Similarly, saline was intravenously administered continuously for 4 weeks as the control group.
(§2) To determine thermal paw withdrawal latency, a heat test was performed by using Plantar Test produced by Ugo Basile (Planter test 7370, Ugo Basile, Italy) according to the method of Hargreaves et al. (Pain, Vol. 32, pp. 77-88, 1988). Rats were placed on a plastic table maintained at a temperature of 23 to 24° C. and stimulated on the sole by using a thermal stimulator, and withdrawal latency (seconds) was measured. Occurrence of hyperalgesia was determined on the basis of shortening of the latency. The latency was measured 3 times for both the soles always at an interval of 5 minutes, and the average of the results of 6 times in total of measurements was used as a measured value.
To elucidate the action mechanism of Rb1, examination was performed by using depletors or blockers against substances reported to be involved in the descending pain signal transmission in the spinal cord, such as serotonin depletors, opioid receptor antagonists, α-adrenergic receptor blockers, and β-adrenergic receptor blockers (Biol. Pharm. Bull., 22-7, pp. 691-697, 1999). The heat test was performed 24 hours after the sciatic nerve ligation, and only rats showing an average latency for both feet of 90% or lower of the same before the operation were used. Animals in a number of 48 in total were arbitrarily divided into 8 groups (6 animals per group) to prepare Rb1-administered groups and a control group. A serotonin depletor, opioid receptor antagonist, α-adrenergic receptor blocker and β-adrenergic receptor blocker were each administered 3 weeks after the ligation, the heat test was performed before and after the administration, and the results were compared.
The serotonin depletor, 5,7-dihydroxytryptamine (5,7-DHT, ICN Biomedicals Inc., Ohio, U.S.A), was intradurally administered in an amount of […] 1 week before the measurement, and the heat test was performed 3 weeks after the ligation. Further, the heat test was performed 3 weeks after the ligation, on the following day, 5 mg/kg of the opioid receptor antagonist, naloxone (USP, Rockville, U.S.A), 10 mg/kg of the β-adrenergic receptor blocker, propranolol (SIGMA-ALDRICH Co., St. Louis, U.S.A), and 20 mg/kg of the α-adrenergic receptor blocker, phentolamine (SIGMA-ALDRICH Co., St. Louis, U.S.A), were each subcutaneously injected, and the heat test was performed again one hour later.

mice = details: cited from earlier work
[2] = tested on: sciatic nerve ligation injury model; assay: Pressure test (von Frey withdrawal threshold) in sciatic nerve ligation injury model; type: in vivo, rat; details: continuously administered i.v. for 4 weeks from 24 hours after sciatic nerve ligation, vs saline control
Method: as §1, with “The ligation was attained to such a degree that the crural muscles slightly contractable by a stimulus given to the nerve, and care was taken not to cause injury in the axon by the ligation operation itself.” left out
To measure the pain threshold for a mechanical stimulus (von Frey withdrawal threshold), the von Frey hair test was performed in the same manner as in the Semmes-Weinstein test (Z. Gesamte Neurol. Psychiat., Vol. 79, pp. 324-333, 1922; Perceptual and Motor Skills, Vol. 14, pp. 351-354, 1962; The Journal of Hand Surgery, Vol. 3, pp. 211-216, 1978), which is clinically performed. […] In this procedure, the pain threshold (g) for the pressure stimuli to both the soles was measured twice for each time, and the average of the results obtained in measurements of 4 times in total was used as a measured value.

[3] = tested on: transient forebrain ischemia; details: continuously injected into the brain ventricle for 7 days after ischemia, cited from earlier work
[4] = tested on: transient forebrain ischemia; details: oral (red ginseng powder) or intraperitoneal (crude ginseng saponin, ginsenoside Rb1) over one week before ischemia; cited from earlier work
[5] = tested on: sciatic nerve ligation injury model; assay: Heat test (thermal paw withdrawal latency) in sciatic nerve ligation injury model; type: in vivo, rat; details: continuously administered i.v. for 4 weeks from 24 hours after sciatic nerve ligation (12 or 60 μg/day); 3 weeks after the ligation and thereafter; vs saline control
Method: as §1, with “The ligation was attained to such a degree that the crural muscles slightly contractable by a stimulus given to the nerve, and care was taken not to cause injury in the axon by the ligation operation itself.” left out
as §2

[6] = tested on: α2A-adrenergic receptor protein; assay: Expression of α2A-adrenergic receptor protein in the spinal cord (immunoblot); type: in vivo, rat; details: 60 μg/day i.v. continuously; 3 weeks after sciatic nerve ligation; compared with control group and sham operation group
Method: The spinal cord in the sciatic nerve innervation territory was removed from rats of the sham operation group (n=3) and rats 3 weeks after the sciatic nerve ligation (each n=3) which were intravenously administered with saline or 60 μg/day of ginsenoside Rb1 (S60) continuously from 24 hours after the sciatic nerve ligation, added to 10 times in volume of 50 mM phosphate buffer, 100 μM pAPMSF, 0.5% Triton-X and 0.5% SDS, and homogenized. The homogenate was added with a half volume of 6% SDS (+β-mercaptoethanol), incubated at 99° C. for 10 minutes and centrifuged at 15,000 rpm and 4° C. for 10 minutes, and the supernatant was used as a sample. Electrophoresis was performed on 10% SDS polyacrylamide, and then the protein was transferred on a polyvinylidine difluoride membrane (Millipore, Bedford, U.S.A.) by using a transblotting apparatus. Western blotting was performed by using anti-α2A-adrenoceptor antibody (ALEXIS BIOCHEMICALS, San Diego, USA) as the primary antibody and anti-rabbit IgG conjugated with alkaline phosphatase (SIGMA Chemicals, St. Louis, U.S.A) as the secondary antibody.

[7] = tested on: α2A-adrenergic receptor mRNA; assay: Measurement of α2A-adrenergic receptor mRNA in the spinal cord by RT-PCR; type: in vivo, rat; details: 60 μg/day i.v. continuously; 3 weeks after sciatic nerve ligation; compared with control group and sham operation group
Method: The spinal cord in the sciatic nerve innervation territory was removed from rats of the sham operation group (n=7) and rats 3 weeks after the sciatic nerve ligation (each n=7) which were intravenously administered with saline or 60 μg/day of ginsenoside Rb1 (S60) continuously from 24 hours after the sciatic nerve ligation, and total RNA was extracted by using ISOGEN (Nippon Gene, Tokyo). The extracted total RNA was treated with DNase, and single-stranded cDNA was synthesized by using oligo-dT primers and Moloney murine leukemia virus reverse transcriptase (Life Technologies, Rockville, USA). The sequences of the primers used in this example were as follows.
PCR was performed under the following condition using Taq polymerase (Takara, Tokyo). For β-actin, after a reaction at 94° C. for 5 minutes, a cycle of heat denaturation at 94° C. for 1 minute, annealing at 55° C. for 1 minute and 30 seconds and elongation at 72° C. for 1 minute and 30 seconds was repeated 25 times. For α2A-adrenergic receptor, after a reaction at 94° C. for 2 minutes, a cycle of heat denaturation at 94° C. for 1 minute, annealing at 60° C. for 1 minute and elongation at 72° C. for 1 minute was repeated 30 times. As the internal control, β-actin was used.

## NCCc1c[nH]c2c(O)cc(O)cc12 [5,7-DHT, 5,7-dihydroxytryptamine, reference compound]
[1]; phentolamine 20 mg/kg s.c.
  heat test with vs without / before vs after the depletor or blocker, control group: no significant difference

## CC(C)=CCC[C@](C)(O[C@@H]1O[C@H](CO[C@@H]2O[C@@H](CO)[C@H](O)[C@H]2O)[C@@H](O)[C@H](O)[C@H]1O)[C@H]1CC[C@]2(C)[C@@H]1[C@H](O)C[C@@H]1[C@@]3(C)CC[C@H](O[C@@H]4O[C@H](CO)[C@@H](O)[C@H](O)[C@H]4O[C@@H]4O[C@H](CO)[C@@H](O)[C@H](O)[C@H]4O)C(C)(C)[C@@H]3CC[C@]12C [Rc, ginsenoside Rc]
mice
  analgesic effect: analgesic effect

## CC(C)=CCC[C@](C)(O[C@@H]1O[C@H](CO)[C@@H](O)[C@H](O)[C@H]1O)[C@H]1CC[C@]2(C)[C@@H]1[C@H](O)C[C@@H]1[C@@]3(C)CC[C@H](O[C@@H]4O[C@H](CO)[C@@H](O)[C@H](O)[C@H]4O[C@@H]4O[C@H](CO)[C@@H](O)[C@H](O)[C@H]4O)C(C)(C)[C@@H]3CC[C@]12C [Rd, ginsenoside Rd]
mice
  analgesic effect: analgesic effect

## CC(C)=CCC[C@](C)(O[C@@H]1O[C@H](CO)[C@@H](O)[C@H](O)[C@H]1O)[C@H]1CC[C@]2(C)[C@@H]1[C@H](O)C[C@@H]1[C@@]3(C)CC[C@H](O)C(C)(C)[C@@H]3[C@@H](O[C@@H]3O[C@H](CO)[C@@H](O)[C@H](O)[C@H]3O[C@@H]3O[C@@H](C)[C@H](O)[C@@H](O)[C@H]3O)C[C@]12C [Re, ginsenoside Re]
mice
  analgesic effect: analgesic effect

## CC(C)=CCC[C@](C)(O)[C@H]1CC[C@]2(C)[C@@H]1[C@H](O)C[C@@H]1[C@@]3(C)CC[C@H](O)C(C)(C)[C@@H]3[C@@H](O[C@@H]3O[C@H](CO)[C@@H](O)[C@H](O)[C@H]3O[C@@H]3O[C@H](CO)[C@@H](O)[C@H](O)[C@H]3O)C[C@]12C [Rf, ginsenoside Rf]
mice
  analgesic effect: analgesic effect

## CC(C)=CCC[C@](C)(O[C@@H]1O[C@H](CO[C@@H]2O[C@H](CO)[C@@H](O)[C@H](O)[C@H]2O)[C@@H](O)[C@H](O)[C@H]1O)[C@H]1CC[C@]2(C)[C@@H]1[C@H](O)C[C@@H]1[C@@]3(C)CC[C@H](O[C@@H]4O[C@H](CO)[C@@H](O)[C@H](O)[C@H]4O[C@@H]4O[C@H](CO)[C@@H](O)[C@H](O)[C@H]4O)C(C)(C)[C@@H]3CC[C@]12C [ginsenoside Rb1]
[2]
  allodynia (pressure test, von Frey pain threshold): allodynia was not ameliorated
[2]; listed as Rb1
  allodynia (pressure test, von Frey pain threshold): amelioration of allodynia was not observed
[3]
  delayed nerve cell death in the hippocampus CA1 region: significantly reduced
[3]; dose-dependent, compared with a control
  response latency in a passive avoidance learning experiment: significantly prolonged
[4]
  delayed nerve cell death: inhibition of delayed nerve cell death
  learning and behavioral impairment: improvement of learning and behavioral impairment
[5]
  hyperalgesia (heat test, withdrawal latency): hyperalgesia was significantly relieved
[6]
  expression level of the α2A-adrenergic receptor protein in the spinal cord: significantly increased
[7]
  expression level of the α2A-adrenergic receptor mRNA in the spinal cord: significantly increased
[1]; 5,7-DHT intradurally 60 μL g 1 week before measurement
  heat test, animals administered vs not administered with 5,7-DHT, Rb1-administered groups: no significant difference
[1]; naloxone 5 mg/kg s.c., heat test again one hour later
  heat test before and after administration of naloxone, Rb1-administered groups: no significant difference
[1]; phentolamine 20 mg/kg s.c., heat test again one hour later
  hyperalgesia suppressing effect after administration of phentolamine, Rb1-administered groups: significantly inhibited
[1]; propranolol 10 mg/kg s.c., heat test again one hour later
  heat test before and after administration of propranolol, Rb1-administered groups: no significant difference

## C=CCN1CC[C@]23c4c5ccc(O)c4O[C@H]2C(=O)CC[C@@]3(O)[C@H]1C5 [naloxone, reference compound]
[1]; phentolamine 20 mg/kg s.c.
  heat test with vs without / before vs after the depletor or blocker, control group: no significant difference

## Cc1ccc(N(CC2=NCCN2)c2cccc(O)c2)cc1 [phentolamine, reference compound]
[1]; phentolamine 20 mg/kg s.c.
  heat test with vs without / before vs after the depletor or blocker, control group: no significant difference

## CC(C)NCC(O)COc1cccc2ccccc12 (stereo not drawn) [propranolol, reference compound]
[1]; phentolamine 20 mg/kg s.c.
  heat test with vs without / before vs after the depletor or blocker, control group: no significant difference
